Data from US20230144436A1, “MUSCLE TARGETING COMPLEXES AND USES THEREOF FOR TREATING MYOTONIC DYSTROPHY” (Dyne Therapeutics, Inc., priority 2020, published 2023).

Tested on: DMPK
Experiment: DMPK knockdown by transfected antisense oligonucleotides in DM1 C15 myotubes at 0.5 nM and 50 nM
Assay type: cell-based
Details: 72 hours, qPCR; for Percent DMPK Reduction: relative to vehicle control; for Normalized DMPK Remaining: relative to vehicle control = 1.00
Method: Two hundred and thirty-six oligonucleotides for targeting DMPK were generated using in silico analysis. Each individual oligonucleotide was evaluated for their ability to target DMPK in cellulo at two doses—0.5 nM (low dose) and 50 nM (high dose).
Briefly, DM1 C15 immortalized myoblasts were cultured in T-75 flasks until near confluency (˜80% confluent). Myoblasts were then disrupted with trypsin and seeded into 96-well microplates at a density of 50,000 cells/well. Cells were allowed to recover overnight before the growth media was washed out and replaced with a no-serum media to induce differentiation into myotubes. Differentiation proceeded for seven days prior to treatment with DMPK-targeting oligonucleotides.
On day seven following induction of differentiation, DM1 C15 myotubes were transfected with an individual oligonucleotide using 0.3 μL of Lipofectamine MessengerMax per well. All oligonucleotides were tested at both 0.5 nM and 50 nM final concentrations in biological triplicates. After treatment with oligonucleotides, cells were incubated for 72 hours prior to being harvested for total RNA. cDNA was synthesized from the total RNA extracts and qPCR was performed to determine expression levels of DMPK in technical quadruplicate. All qPCR data were analyzed using a traditional […] method and were normalized to a plate-based negative control that comprised cells treated with vehicle control (0.3 μL/well Lipofectamine MessengerMax without any oligonucleotide). Results from these experiments are shown in Table 10. ‘Normalized DMPK Remaining’ for each antisense oligonucleotide in Table 10 refers to the expression level of DMPK in cell treated with said antisense oligonucleotide relative to the negative control that comprised cells treated with vehicle control (wherein the expression level of the negative control has been normalized to equal 1.00)

Substance	Percent DMPK Reduction (0.5 nM oligonucleotide) [%]	Normalized DMPK Remaining (0.5 nM oligonucleotide)	Percent DMPK Reduction (50 nM oligonucleotide) [%]	Normalized DMPK Remaining (50 nM oligonucleotide)
246 (GGACGGCCCGGCUUGCUGCC; chemistry not given here) [compound 246]	58.25	0.42	69.30	0.31
247 (GGGCCCGGAUCACAGGACUG; chemistry not given here) [compound 247]	57.97	0.42	61.96	0.38
248 (CAAACUUGCUCAGCAGUGUC; chemistry not given here) [compound 248]	31.45	0.69	53.93	0.46
249 (AAACUUGCUCAGCAGUGUCA; chemistry not given here) [compound 249]	30.85	0.69	50.69	0.49
250 (CGGAUGGCCUCCAUCUCCCG; chemistry not given here) [compound 250]	28.92	0.71	55.57	0.44
251 (CUCGGCCGGAAUCCGCUCCC; chemistry not given here) [compound 251]	28.64	0.71	64.75	0.35
252 (UCUCGGCCGGAAUCCGCUCC; chemistry not given here) [compound 252]	27.88	0.72	67.46	0.33
253 (UGCUCAGCAGUGUCAGCAGG; chemistry not given here) [compound 253]	27.08	0.73	65.78	0.34
254 (UUGUCGGGUUUGAUGUCCCU; chemistry not given here) [compound 254]	34.16	0.66	55.56	0.44
255 (GUUGCGGGUUUGAUGUCCC; chemistry not given here) [compound 255]	33.31	0.67	61.07	0.39
256 (UCCGCCAGGUAGAAGCGCGC; chemistry not given here) [compound 256]	27.99	0.72	80.06	0.20
258 (AACUUGCUCAGCAGUGUCAG; chemistry not given here) [compound 258]	19.81	0.80	52.64	0.47
259 (CAGCUGCGUGAUCCACCGCC; chemistry not given here) [compound 259]	19.03	0.81	68.34	0.32
261 (GAAGUCGGCCAGGCGGAUGU; chemistry not given here) [compound 261]	18.36	0.82	44.04	0.56
262 (UGUCGGGUUUGAUGUCCCUG; chemistry not given here) [compound 262]	30.09	0.70	68.14	0.32
263 (GGAUGGCCUCCAUCUCCCGG; chemistry not given here) [compound 263]	24.93	0.75	60.77	0.39
264 (AGGAUGUUGUCGGGUUUGAU; chemistry not given here) [compound 264]	24.19	0.76	39.48	0.61
265 (GUCGGGUUUGAUGUCCCUGU; chemistry not given here) [compound 265]	28.89	0.71	64.15	0.36

Substance	Percent DMPK Reduction (0.5 nM oligonucleotide) [%]	Normalized DMPK Remaining (0.5 nM oligonucleotide)	Percent DMPK Reduction (50 nM oligonucleotide) [%]	Normalized DMPK Remaining (50 nM oligonucleotide)
266 (AAUACUCCAUGACCAGGUAC; chemistry not given here) [compound 266]	28.86	0.71	52.07	0.48
267 (CUUGUUCAUGAUCUUCAUGG; chemistry not given here) [compound 267]	16.06	0.84	49.47	0.51
268 (UCAGUGCAUCCAAAACGUGG; chemistry not given here) [compound 268]	15.76	0.84	42.06	0.58
269 (CUGUCCCGGAGACCAUCCCA; chemistry not given here) [compound 269]	35.85	0.64	50.78	0.49
271 (CCCACGUAAUACUCCAUGAC; chemistry not given here) [compound 271]	28.21	0.72	45.94	0.54
273 (CUGUGCACGUAGCCAAGCCG; chemistry not given here) [compound 273]	25.67	0.74	70.10	0.30
274 (UGCCCAUCCACGUCAGGGCC; chemistry not given here) [compound 274]	13.63	0.86	33.09	0.67
275 (AGCGCCUCCGAUAGGCCAGG; chemistry not given here) [compound 275]	21.19	0.79	61.91	0.38
276 (UGUGCACGUAGCCAAGCCGG; chemistry not given here) [compound 276]	24.74	0.75	75.09	0.25
277 (GACCAGGUACAGGUAGUUCU; chemistry not given here) [compound 277]	42.85	0.57	70.95	0.29
279 (CAUCUCGGCCGGAAUCCGCU; chemistry not given here) [compound 279]	20.21	0.80	59.40	0.41
281 (ACAGCGGUCCAGCAGGAUGU; chemistry not given here) [compound 281]	19.94	0.80	55.14	0.45
282 (AAAGCGCCUCCGAUAGGCCA; chemistry not given here) [compound 282]	19.89	0.80	62.04	0.38
283 (GCCAAAGAAGAAGGGAUGUG; chemistry not given here) [compound 283]	24.87	0.75	56.19	0.44
284 (CACGUAAUACUCCAUGACCA; chemistry not given here) [compound 284]	24.40	0.76	46.50	0.54
285 (AUCUCGGCCGGAAUCCGCUC; chemistry not given here) [compound 285]	11.61	0.88	65.98	0.34
287 (GCCAUCUCGGCCGGAAUCCG; chemistry not given here) [compound 287]	18.56	0.81	86.39	0.14
289 (AUGACAAUCUCCGCCAGGUA; chemistry not given here) [compound 289]	42.38	0.58	60.47	0.40
